# Where a name gives a salt, the structure may show the parent alone.
# Assays:
# Format in all cases: biochemical
# [1] = target: human JAK1 (a.a. 837-1142) (Homo sapiens, UniProt P23458); test: In vitro JAK kinase assay (HTRF, phosphorylation of a biotinylated peptide), JAK1; conditions: measured at 1 mM ATP
# In short: (§1)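 Phosphorylation of a biotinylated peptide by purified His-tagged JAK catalytic domains (insect-cell baculovirus expression) ran 1 hr at room temperature. After stopping with EDTA, Eu-Py20 and SA-APC were bound for 40 minutes and HTRF measured.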
# [2] = target: human JAK1 (a.a. 837-1142); test: as above; conditions: ratio of JAK2 IC50 to JAK1 IC50, measured at 1 mM ATP
# In short: as §1
# Jak2 (a.a. 828-1132) = Jak2 (a.a. 828-1132) (Homo sapiens (Human), UniProt O60674); test: In vitro JAK kinase assay (HTRF, phosphorylation of a biotinylated peptide), JAK2; conditions: measured at 1 mM ATP
# In short: as §1
# Jak2 (a.a. 828-1132), sequence (O60674 828-1132): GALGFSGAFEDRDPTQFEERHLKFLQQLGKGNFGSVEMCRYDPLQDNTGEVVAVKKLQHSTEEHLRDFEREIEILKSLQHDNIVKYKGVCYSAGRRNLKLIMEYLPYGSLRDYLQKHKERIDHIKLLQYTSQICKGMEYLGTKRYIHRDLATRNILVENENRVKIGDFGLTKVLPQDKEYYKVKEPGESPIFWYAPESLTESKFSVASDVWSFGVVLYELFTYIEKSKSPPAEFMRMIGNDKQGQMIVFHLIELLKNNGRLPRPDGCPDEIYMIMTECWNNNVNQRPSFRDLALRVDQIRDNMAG
Structure (SMILES),IC50 [1],IC50 Ratio JAK2/JAK1 [2],IC50 (Jak2 (a.a. 828-1132))
"N#CCC1(n2cc(-c3ncnc4[nH]ccc34)cn2)CN(C2CCN(Cc3ccc4c(c3)OCCO4)CC2)C1 [Example 234, {1-[1-(2,3-dihydro-1,4-benzodioxin-6-ylmethyl)piperidin-4-yl]-3-[4-(7H-pyrrolo[2,3-d]pyrimidin-4-yl)-1H-pyrazol-1-yl]azetidin-3-yl}acetonitrile]",≤ 5 nM,4.2,10 to 50 nM
"Cc1cc(C(=O)N2CCC(N3CC(CC#N)(n4cc(-c5ncnc6[nH]ccc56)cn4)C3)CC2)cs1 [Example 73, {1-{1-[(5-methyl-3-thienyl)carbonyl]piperidin-4-yl}-3-[4-(7H-pyrrolo[2,3-d]pyrimidin-4-yl)-1H-pyrazol-1-yl]azetidin-3-yl}acetonitrile]",≤ 5 nM,4.2,≤ 10 nM
"CNCc1cc(C(=O)N2CCC(N3CC(CC#N)(n4cc(-c5ncnc6[nH]ccc56)cn4)C3)CC2)nc(C(F)(F)F)n1 [Example 371, {1-(1-{[6-[(methylamino)methyl]-2-(trifluoromethyl)pyrimidin-4-yl]carbonyl}piperidin-4-yl)-3-[4-(7H-pyrrolo[2,3-d]pyrimidin-4-yl)-1H-pyrazol-1-yl]azetidin-3-yl}acetonitrile trifluoroacetate salt]",≤ 5 nM,65.3,50 to 100 nM
"N#CCC1(n2cc(-c3ncnc4[nH]ccc34)cn2)CN(C2CCN(C(=O)c3nc(C(F)(F)F)cs3)CC2)C1 [Example 344, [3-[4-(7H-Pyrrolo[2,3-d]pyrimidin-4-yl)-1H-pyrazol-1-yl]-1-(1-{[4-(trifluoromethyl)-1,3-thiazol-2-yl]carbonyl}piperidin-4-yl)azetidin-3-yl]acetonitrile]",≤ 5 nM,18.9,50 to 100 nM
"N#CCC1(n2cc(-c3c(F)cnc4[nH]ccc34)cn2)CN(C2CCN(C(=O)c3ccc(F)c(C#N)c3)CC2)C1 [Example 318, 5-[(4-{3-(cyanomethyl)-3-[4-(5-fluoro-1H-pyrrolo[2,3-b]pyridin-4-yl)-1H-pyrazol-1-yl]azetidin-1-yl}piperidin-1-yl)carbonyl]-2-fluorobenzonitrile]",5 to 20 nM,4.7,10 to 50 nM
"N#CCC1(n2ccc(-c3ncnc4[nH]ccc34)c2)CN(C2CCN(C(=O)Nc3ccc(F)cc3C(F)(F)F)CC2)C1 [Example 283, 4-{3-(Cyanomethyl)-3-[3-(7H-pyrrolo[2,3-d]pyrimidin-4-yl)-1H-pyrrol-1-yl]azetidin-1-yl}-N-[4-fluoro-2-(trifluoromethyl)phenyl]piperidine-1-carboxamide]",≤ 5 nM,35.6,50 to 100 nM
"Cc1cc(C)c(CC(=O)N2CCC(N3CC(CC#N)(n4cc(-c5ncnc6[nH]ccc56)cn4)C3)CC2)c(C)c1 [Example 113, {1-[1-(mesitylacetyl)piperidin-4-yl]-3-[4-(7H-pyrrolo[2,3-d]pyrimidin-4-yl)-1H-pyrazol-1-yl]azetidin-3-yl}acetonitrile]",20 to 30 nM,4.2,50 to 100 nM
"N#CCC1(n2cc(-c3ccnc4[nH]ccc34)cn2)CN(C2CCN(C(=O)Nc3ccc(C#N)cc3F)CC2)C1 [Example 312, N-(4-cyano-2-fluorophenyl)-4-{3-(cyanomethyl)-3-[4-(1H-pyrrolo[2,3-b]pyridin-4-yl)-1H-pyrazol-1-yl]azetidin-1-yl}piperidine-1-carboxamide]",5 to 20 nM,5.3,50 to 100 nM
"N#CCC1(n2cc(-c3ncnc4[nH]ccc34)cn2)CN(C2CCN(C(=O)c3ccc(F)c(O)c3)CC2)C1 [Example 58, {1-[1-(4-fluoro-3-hydroxybenzoyl)piperidin-4-yl]-3-[4-(7H-pyrrolo[2,3-d]pyrimidin-4-yl)-1H-pyrazol-1-yl]azetidin-3-yl}acetonitrile]",≤ 5 nM,5.0,10 to 50 nM
"N#CCC1(n2cc(-c3ncnc4[nH]ccc34)cn2)CN(C2CCN(C(=O)c3ccc(-c4ccccc4)cc3)CC2)C1 [Example 114, {1-[1-(biphenyl-4-ylcarbonyl)piperidin-4-yl]-3-[4-(7H-pyrrolo[2,3-d]pyrimidin-4-yl)-1H-pyrazol-1-yl]azetidin-3-yl}acetonitrile]",5 to 20 nM,1.5,10 to 50 nM
"N#CCC1(n2cc(-c3ncnc4[nH]ccc34)cn2)CN(C2CCN(C(=O)c3ccsc3)CC2)C1 [Example 15, {3-[4-(7H-pyrrolo[2,3-d]pyrimidin-4-yl)-1H-pyrazol-1-yl]-1-[1-(3-thienylcarbonyl)piperidin-4-yl]azetidin-3-yl}acetonitrile]",5 to 20 nM,5.3,10 to 50 nM
"N#CCC1(n2cc(-c3c(F)cnc4[nH]ccc34)cn2)CN(C2CCN(C(=O)c3ccc(C#N)cc3F)CC2)C1 [Example 317, 4-[(4-{3-(cyanomethyl)-3-[4-(5-fluoro-1H-pyrrolo[2,3-b]pyridin-4-yl)-1H-pyrazol-1-yl]azetidin-1-yl}piperidin-1-yl)carbonyl]-3-fluorobenzonitrile]",≤ 5 nM,4.5,10 to 50 nM
N#CCC1(n2cc(-c3ncnc4[nH]ccc34)cn2)CN(C2CCN(C(=O)Nc3cnccc3C(F)(F)F)CC2)C1 [Example 165],5 to 20 nM,10.4,50 to 100 nM
"N#CCC1(n2cc(-c3ncnc4[nH]ccc34)cn2)CN(C2CCN(C(=O)c3sc(C(F)(F)F)cc3O)CC2)C1 [Example 71, {1-{1-[3-hydroxy-5-(trifluoromethyl)-2-thienylcarbonyl]piperidin-4-yl}-3-[4-(7H-pyrrolo[2,3-d]pyrimidin-4-yl)-1H-pyrazol-1-yl]azetidin-3-yl}acetonitrile]",20 to 30 nM,4.4,50 to 100 nM
"CN(C)c1ccc(CN2CCC(N3CC(CC#N)(n4cc(-c5ncnc6[nH]ccc56)cn4)C3)CC2)c(F)c1C#N [Example 209, 3-[(4-{3-(Cyanomethyl)-3-[4-(7H-pyrrolo[2,3-d]pyrimidin-4-yl)-1H-pyrazol-1-yl]azetidin-1-yl}piperidin-1-yl)methyl]-6-(dimethylamino)-2-fluorobenzonitrile]",≤ 5 nM,19.0,10 to 50 nM
"N#CCC1(n2cc(-c3ncnc4[nH]ccc34)cn2)CN(C2CCN(C(=O)c3cc(CN4CC[C@@H](F)C4)nc(C(F)(F)F)n3)CC2)C1 [Example 378, {1-(1-{[6-{[(3R)-3-fluoropyrrolidin-1-yl]methyl}-2-(trifluoromethyl)pyrimidin-4-yl]carbonyl}piperidin-4-yl)-3-[4-(7H-pyrrolo[2,3-d]pyrimidin-4-yl)-1H-pyrazol-1-yl]azetidin-3-yl}acetonitrile (trifluoroacetate salt: 4 TFA)]",≤ 5 nM,32.7,10 to 50 nM
"N#CCC1(n2cc(-c3ncnc4[nH]ccc34)cn2)CN(C2CCN(C(=O)c3cc4ccc(C(F)(F)F)cc4s3)CC2)C1 [Example 94, [3-[4-(7H-pyrrolo[2,3-d]pyrimidin-4-yl)-1H-pyrazol-1-yl]-1-(1-{[6-(trifluoromethyl)-1-benzothien-2-yl]carbonyl}piperidin-4-yl)azetidin-3-yl]acetonitrile]",5 to 20 nM,1.0,10 to 50 nM
"N#CCC1(n2cc(-c3ncnc4[nH]ccc34)cn2)CN(C2CCN(C(=O)c3cc(C(F)(F)F)ncc3Cl)CC2)C1 [Example 342, {1-{1-[5-Chloro-2-(trifluoromethyl)isonicotinoyl]piperidin-4-yl}-3-[4-(7H-pyrrolo[2,3-d]pyrimidin-4-yl)-1H-pyrazol-1-yl]azetidin-3-yl}acetonitrile]",≤ 5 nM,5.7,10 to 50 nM
"N#CCC1(n2cc(-c3c(C#N)cnc4[nH]ccc34)cn2)CN(C2CCN(C(=O)c3cc(Br)cc(Br)c3)CC2)C1 [Example 336, 4-(1-{3-(cyanomethyl)-1-[1-(3,5-dibromobenzoyl)piperidin-4-yl]azetidin-3-yl}-1H-pyrazol-4-yl)-1H-pyrrolo[2,3-b]pyridine-5-carbonitrile]",≤ 5 nM,2.9,≤ 10 nM
"N#CCC1(n2cc(-c3ncnc4[nH]ccc34)cn2)CN(C2CCN(C(=O)c3ccccc3)CC2)C1 [Example 9, {1-(1-benzoylpiperidin-4-yl)-3-[4-(7H-pyrrolo[2,3-d]pyrimidin-4-yl)-1H-pyrazol-1-yl]azetidin-3-yl}acetonitrile]",≤ 5 nM,3.2,10 to 50 nM
"N#CCC1(n2ccc(-c3ncnc4[nH]ccc34)c2)CN(C2CCN(C(=O)Nc3cnccc3C(F)(F)F)CC2)C1 [Example 291, 4-{3-(cyanomethyl)-3-[3-(7H-pyrrolo[2,3-d]pyrimidin-4-yl)-1H-pyrrol-1-yl]azetidin-1-yl}-N-[4-(trifluoromethyl)pyridin-3-yl]piperidine-1-carboxamide]",≤ 5 nM,20.3,50 to 100 nM
"Cc1nc(F)ccc1NC(=O)N1CCC(N2CC(CC#N)(n3cc(-c4ncnc5[nH]ccc45)cn3)C2)CC1 [Example 199, 4-{3-(cyanomethyl)-3-[4-(7H-pyrrolo[2,3-d]pyrimidin-4-yl)-1H-pyrazol-1-yl]azetidin-1-yl}-N-(6-fluoro-2-methylpyridin-3-yl)piperidine-1-carboxamide]",≤ 5 nM,10.0,10 to 50 nM
"COc1cccc(F)c1CN1CCC(N2CC(CC#N)(n3cc(-c4ncnc5[nH]ccc45)cn3)C2)CC1 [Example 218, {1-[1-(2-fluoro-6-methoxybenzyl)piperidin-4-yl]-3-[4-(7H-pyrrolo[2,3-d]pyrimidin-4-yl)-1H-pyrazol-1-yl]azetidin-3-yl}acetonitrile]",20 to 30 nM,2.6,50 to 100 nM

# — patent US9999619B2, “Piperidin-4-yl azetidine derivatives as JAK1 inhibitors” (Incyte Corporation, priority 2010, dated 2018)
